Laboratory results published in patent US20200085789A1, “USE OF A PROTEASOME INHIBITOR FOR THE TREATMENT OF CENTRAL NERVOUS SYSTEM (CNS) CANCERS” (Celgene International II Sàrl, priority 2017, published 2020).

What was measured:
[1] = Marizomib blood pharmacokinetics (Part 1 Phase 1); conditions: for AUC(0-t) / Cmax / Tmax / Vd / half-life: human, whole blood, intravenous
Description: Blood samples will be taken for peak and trough measurements, pre-dose and immediately prior to (end of infusion) EOI, on Cycle 1 Day 1. On Cycle 1 Day 15 full PK sampling will be done: pre-dose, immediately prior to EOI and then 2, 5, 15, 30, 45, 60, 90 and 120 minutes post infusion. The following PK parameters will be estimated by non-compartmental analysis:
Non-compartmental analyses will be performed. […] Blood concentrations and computed PK parameters for MRZ will be listed and summarized by cohort (mean, geometric mean, standard deviation, coefficient of variation, minimum, maximum and number of observations).
Blood should be drawn from the contralateral arm to the infusion site and using an indwelling catheter to avoid multiple needle sticks is recommended. Sample collection time should be recorded on the tube label and Case Report Form (CRF) as day: hour: minute. Nominal time of blood collection are given as “time points”; it is critical that an accurately collected actual time of the sample is written on the CRF and on the blood tubes (date entered as dd:mm:yyyy; time entered using a 24-hour clock, hh:mm). For MRZ samples will be obtained before treatment and just prior to end of infusion on Cycle 1 Day 1. On Cycle 1 Day 15, MRZ blood samples will be obtained before treatment, just prior to end of infusion, and 2, 5, 15, 30, 45, 60, 90, and 120 minutes after the infusion. Every effort should be made to collect samples at the prescribed times, but deviations up to 10% of the time point are allowed. Additional samples may be collected if the subject experiences a potentially drug-related SAE. After blood collection, neutralizing solution must be added. Use Sponsor-provided PK kits. Process, store and ship samples per instructions in Study Reference Manual.
Non-compartmental analyses will be performed.

[2] = test system: WHO Grade IV malignant glioma; assay: Tumor response by RANO criteria, MRZ ± BEV in recurrent grade IV malignant glioma patients; assay type: in vivo, human; conditions: for Best Response CR (0), patients / Best Response PD (19), patients / Best Response PR (1), patients / Best Response SD (8), patients: Monotherapy ITT; for SPD: Monotherapy
Description: (§1) Tumor response was measured every other cycle by RANO criteria.
(§2) The drugs were infused on 28-Day Cycles. Tumor response is assessed every other cycle by RANO criteria.
Assessment will include MRI scans at the end of every even numbered cycle (±7 days) using RANO 2010 criteria for assessment.

[3] = test system: WHO Grade IV malignant glioma; assay: Progression free survival (PFS) and overall survival (OS), MRZ ± BEV in recurrent grade IV malignant glioma patients; assay type: in vivo, human
Description: as §1, §2
Tumor response, including PD activity, progression-free survival (PFS), and overall survival (OS) will be assessed. Tumor response will be assessed by the Investigators using RANO 2010 criteria. […] Endpoints of response based on tumor assessments will be calculated for subjects who received at least 3 doses of MRZ and had at least 1 post-dose tumor evaluation.
Tumor response including PD, progression-free survival (PFS), and overall survival (OS) will be assessed by the Investigators using RANO 2010 criteria.

[4] = Phase 2 monotherapy, of 30 patients

C[C@@]12OC(=O)[C@]1([C@@H](O)[C@@H]1C=CCCC1)NC(=O)[C@@H]2CCCl [MRZ, marizomib]
CLobs ([1]; MRZ 0.7 mg/m^2, C1D8): 272 ± 166 (3) L/hr
CLobs ([1]; MRZ 0.8 mg/m^2, C1D8): 304 ± 85.0 (3) L/hr
pharmacokinetic parameters ([1]; co-administration with bevacizumab): consistent with published parameters and not affected by co-administration
AUC(0-t) ([1]; 0.7 mg/m2): 3.22 ng·h/mL
Cmax ([1]; 0.7 mg/m2): 64.9 ± 1.73 ng/mL
Tmax ([1]; 0.7 mg/m2): 21.3 min
Vd ([1]; 0.7 mg/m2): 48.3 ± 16.1 L
half-life ([1]; 0.7 mg/m2): 16 ± 8.08 min
AUC(0-t) ([1]; 0.8 mg/m2): 6.53 ng·h/mL
Cmax ([1]; 0.8 mg/m2): 26.5 ± 7.92 ng/mL
Tmax ([1]; 0.8 mg/m2): 8 min
Vd ([1]; 0.8 mg/m2): 55 ± 19.7 L
half-life ([1]; 0.8 mg/m2): 7.27 ± 0.423 min
Tmax ([1]; […]2): 15.5 min
Vd ([1]; […]2): 54.4 ± 10.6 L
half-life ([1]; […]2): 8.2 ± 0.8 min
Best Response CR (0), patients ([2]; Methylated N = 7): 0
Best Response PD (19), patients ([2]; Methylated N = 7): 4
Best Response PR (1), patients ([2]; Methylated N = 7): 0
Best Response SD (8), patients ([2]; Methylated N = 7): 3
Best Response CR (0), patients ([2]; Unknown N = 5): 0
Best Response PD (19), patients ([2]; Unknown N = 5): 3
Best Response PR (1), patients ([2]; Unknown N = 5): 0
Best Response SD (8), patients ([2]; Unknown N = 5): 1
Best Response CR (0), patients ([2]; Unmethylated N = 18): 0
Best Response PD (19), patients ([2]; Unmethylated N = 18): 12
Best Response PR (1), patients ([2]; Unmethylated N = 18): 1
Best Response SD (8), patients ([2]; Unmethylated N = 18): 4
SPD ([2]; Pt 0511, Screening SPD 703.47): 231.3
SPD ([2]; Pt 0515, Screening SPD 199.6): 259.5
SPD ([2]; Pt 0521, Screening SPD 836.44): 832.82
overall response rate ([2]; Phase 2 monotherapy 0.8 mg/m^2, 30 patients): 3%
partial response, patients [2, 4]: 1
progressive disease, patients [2, 4]: 19
disease course in most patients ([2]; marizomib alone): rapid progression
PFS Median ([3]; All Patients): 1.8
6 mo Overall Survival ([3]; All Pts): 64%
9 mo Overall Survival ([3]; All Pts): 64%
6 mo Overall Survival ([3]; Methylated MGMT Promoter): 83%
9 mo Overall Survival ([3]; Methylated MGMT Promoter): 83%
PFS Median ([3]; Methylated MGMT Promoter): 1.7
OS 6 mo ([3]; Monotherapy, Methylated (7)): 83%
OS 9 mo ([3]; Monotherapy, Methylated (7)): 83%
OS Median ([3]; Monotherapy, Methylated (7)): Undefined
PFS 3 mo ([3]; Monotherapy, Methylated (7)): 40%
PFS Median ([3]; Monotherapy, Methylated (7)): 1.7 months
OS 6 mo ([3]; Monotherapy, Unmethylated (18)): 65%
OS 9 mo ([3]; Monotherapy, Unmethylated (18)): 65%
OS Median ([3]; Monotherapy, Unmethylated (18)): Undefined
PFS 3 mo ([3]; Monotherapy, Unmethylated (18)): 20%
PFS Median ([3]; Monotherapy, Unmethylated (18)): 1.9 months
median overall survival ([3]; Part II monotherapy, 16 events, median follow-up 9.2 months): 11.4 months
OS 6 mo % ([3]; Part II, N = 30, 14 censored): 59%
OS 9 mo % ([3]; Part II, N = 30, 14 censored): 54%
OS 12 mo % ([3]; Part II, N = 30, 14 censored): 17%
6 mo Overall Survival ([3]; Unmethylated MGMT Promoter): 65%
9 mo Overall Survival ([3]; Unmethylated MGMT Promoter): 65%
PFS Median ([3]; Unmethylated MGMT Promoter): 1.9
